Data reported in ChEMBL document CHEMBL3714744, “Aryl sulfonamides” (2009).
The source made the active and inactive calls. The rule behind the calls is not given here.

Tested on: Mus musculus
Assay: Inhibition of inflammatory bowel disease-associated growth retardation in MDR1a-knockout mouse at 50 mg/kg, sc dosed twice daily for 14 consecutive weeks starting at age 10 weeks
Type: functional, organism-based
Settings: not given

Structure (SMILES)	inhibition
CC(C)(C)c1ccc(S(=O)(=O)Nc2ccc(Cl)cc2C(=O)c2ccncc2)cc1	Active

Molecular target: T1, C-C chemokine receptor type 9 (Homo sapiens, UniProt P51686)
T1 sequence (P51686 whole entry): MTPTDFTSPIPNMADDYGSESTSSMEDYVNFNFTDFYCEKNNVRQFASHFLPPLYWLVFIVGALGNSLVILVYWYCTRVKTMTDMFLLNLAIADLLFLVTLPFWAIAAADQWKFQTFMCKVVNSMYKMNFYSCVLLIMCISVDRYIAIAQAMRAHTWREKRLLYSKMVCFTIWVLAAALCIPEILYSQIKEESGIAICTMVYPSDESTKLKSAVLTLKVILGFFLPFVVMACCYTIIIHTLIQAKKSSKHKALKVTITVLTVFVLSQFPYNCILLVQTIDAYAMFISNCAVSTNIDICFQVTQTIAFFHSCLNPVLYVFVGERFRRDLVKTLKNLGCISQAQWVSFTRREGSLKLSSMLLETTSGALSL
Assay: Antagonist activity against CCR9 in human MOLT4 cells assessed as inhibition of human recombinant TECK-induced calcium response pre-treated before TECK stimulation by Flou-4-AM dye based FLIPR assay
Type: functional, cell-based, MOLT-4
Settings: not given

Structure (SMILES)	IC50 [nM]
CC(=O)c1ccc(S(=O)(=O)Nc2ccc(Br)cc2C(=O)c2ccncc2)cc1	< 100
COC(=O)CCc1ccc(S(=O)(=O)Nc2ccc(Cl)cc2C(=O)c2ccnc(C)c2)cc1	< 100
O=C(c1ccncc1)c1cc(Cl)ccc1NS(=O)(=O)c1ccc([N+](=O)[O-])cc1	< 100
Cc1cc(C(=O)c2cc(Cl)ccc2NS(=O)(=O)c2ccc(S(C)(=O)=O)cc2)ccn1	< 100
CS(=O)(=O)c1ccc(S(=O)(=O)Nc2ccc(Cl)cc2C(=O)c2cccnc2)cc1	< 100

Same assay, conditions: molt-4

Structure (SMILES)	IC50
Cc1ncccc1C(=O)c1cc(Cl)ccc1NS(=O)(=O)c1ccc(OC(F)(F)F)cc1	in the range around 100 nM
Cc1ncccc1C(=O)c1cc(Cl)ccc1NS(=O)(=O)c1ccc(-c2cnco2)cc1	in the range around 1000 nM
COc1ccc(S(=O)(=O)Nc2ccc(Cl)cc2C(=O)c2ccccn2)cc1	in the range around 100 nM
